Like-named read-outs stand apart in the source and are kept apart here.
Key:
[1] = test system: Bovine brain tubulin; assay: Inhibition of tubulin polymerization (turbidimetric tubulin assembly); assay type: biochemical; conditions: for IC50: 10 μM tubulin, 20 min incubation, 30° C.; for Inhibition of tubulin assembly (in words): comparable to CA1, CA4
Description: Bovine brain tubulin was purified using methods previously described by Hamel (Cell Biochem. Biophys. 38:1-21 (2003)). The effect of compounds on tubulin assembly in vitro was determined by using a series of concentrations that were pre-incubated with 10 μM tubulin (1.0 mg/mL) in glutamate buffer at 30° C., followed by cooling to 0° C. After GTP was added, the samples were mixed and transferred to cuvettes at 0° C. in a recording spectrophotometer and warmed to 30° C. to initiate polymerization. Tubulin assembly was observed turbidimetrically at 350 nm. Tubulin disassembly was confirmed by cooling to 0° C. The calculated compound concentration that inhibited tubulin assembly by 50% after a 20 min incubation was defined as the IC50 value.

[2] = test system: human cancer cell lines; assay: Cytotoxicity against human cancer cell lines (SRB assay, whole panel); assay type: cell-based; conditions: each cell line of Table 2
[3] = test system: SK-OV-3 (ovarian); assay: Sulforhodamine B (SRB) growth inhibition assay; conditions: Homo sapiens
[4] = test system: NCI-H460 (lung); assay: Sulforhodamine B (SRB) growth inhibition assay; conditions: for GI50: Homo sapiens, NCI-H460, read-out: Cytotoxicity (GI50) NCI-H460
[5] = test system: DU-145 (prostate); assay: Sulforhodamine B (SRB) growth inhibition assay; conditions: for GI50: Homo sapiens, DU-145, read-out: Cytotoxicity (GI50) DU-145
[6] = test system: SK-OV-3 (ovarian)
[7] = test system: NCI-H460 (lung)
[8] = test system: DU-145 (prostate)
[9] = test system: human cancer cell lines; conditions: previous studies, U.S. Pat. No. 7,429,681; cited from earlier work
[10] = SK-OV-3, read-out: Cytotoxicity (GI50) SK-OV-3

GI50 [6] | GI50 [7] | GI50 [8] | Compound | other results
– | – | – | COc1ccc(/C=C\c2cc(OC)c(OC)c(OC)c2)c(O)c1O [CA1, Combretastatin A-1, reference compound] | IC50 [1]: 1900 nM
– | – | – | COc1cc(C2=CCCCc3c2ccc(OC)c3[N+](=O)[O-])cc(OC)c1OC [Compound 5, 1-Nitro-2-Methoxy-5-(3′,4′,5′-trimethoxyphenyl)-6,7,8,9-tetrahydro-5H-cyclobenzohepta-6-ene] | IC50 [1]: 2500 nM; Inhibition of tubulin assembly (in words) [1]: potent inhibitors of tubulin assembly; Cytotoxicity compared with comparison compounds (in words) [2]: significantly less cytotoxic than any of the comparison compounds; GI50 [3, 10]: 152 nM; GI50 [4]: 666 nM; GI50 [5]: 211 nM
– | – | – | COc1ccc2c(c1N)CCCC=C2c1cc(OC)c(OC)c(OC)c1 [Compound 6, 2-Methoxy-5-(3′,4′,5′-trimethoxyphenyl)-6,7,8,9-tetrahydro-5H-cyclobenzohepta-6-ene-1-amine] | IC50 [1]: 1200 nM; Inhibition of tubulin assembly (in words) [1]: potent inhibitors of tubulin assembly; Cytotoxicity compared with comparison compounds (in words) [2]: more active against each cell line than the natural products CA4 and CA1; GI50 [3, 10]: 0.0329 nM; GI50 ([3]; SK-OV-3, read-out: GI50 against ovarian cancer): 0.0329 nM; GI50 [4]: 4.69 nM; Cytotoxicity (in words) ([4]; non-small cell lung cell line): strongly cytotoxic; GI50 [5]: 1.11 nM; Cytotoxicity (in words) ([5]; prostate cell line): strongly cytotoxic
22700 nM | 20900 nM | 20500 nM | COc1cc2c(c(O)c1O)CCCC=C2c1cc(OC)c(OC)c(OC)c1 [Compound 13, 3-Methoxy-5-(3′,4′,5′-trimethoxyphenyl)-6,7,8,9-tetrahydro-5H-cyclobenzohepta-6-ene-1,2-diol] | –
– | – | – | COc1ccc2c(c1O)CCCC=C2c1cc(OC)c(OC)c(OC)c1 [Compound 23, 2-Methoxy-5-(3′,4′,5′-trimethoxyphenyl)-6,7,8,9-tetrahydro-5H-cyclobenzohepta-6-ene-1-ol] | IC50 [1]: 1700 nM; Inhibition of tubulin assembly (in words) [1]: potent inhibitors of tubulin assembly; Cytotoxicity against human cancer cell lines (in words) [9]: picomolar cytotoxicity; GI50 [3, 10]: 0.0242 nM; GI50 [4]: 0.00192 nM; GI50 [5]: 0.00242 nM
5.94 nM | 26.6 nM | 9.66 nM | COc1cc(C2=CCCCc3c2ccc(OC)c3OP(=O)(O)O)cc(OC)c1OC [Compound 24, Disodium 2-Methoxy-5-(3′,4′,5′-trimethoxyphenyl)-6,7,8,9-tetrahydro-5H-cyclobenzohepta-6-ene-1-phosphate] | –
18100 nM | 25900 nM | 16300 nM | COc1cc(C2=CCCCc3c2cc(OC)c(OC)c3O)cc(OC)c1OC [Compound 36, 1-Hydroxy-2,3-dimethoxy-5-(3′,4′,5′-trimethoxyphenyl)-6,7,8,9-tetrahydro-5H-cyclobenzoheptan-5-ene] | –
39.9 nM | 83.2 nM | 108 nM | COc1ccc2c(c1Cl)CCCC=C2c1cc(OC)c(OC)c(OC)c1 [Compound 46, 1-Chloro-2-methoxy-5-(3′,4′,5′-trimethoxyphenyl)-6,7,8,9-tetrahydro-5H-cyclobenzoheptan-5-ene] | –
341 nM | 410 nM | 783 nM | COc1cc(C2(O)CCCCc3c2ccc(O)c3O)cc(OC)c1OC (stereo not shown) [Compound 63, 1,2-Dihydroxy-5-(3′,4′,5′-trimethoxyphenyl)-6,7,8,9-tetrahydro-5H-cyclobenzoheptan-5-ol] | –
19100 nM | 32500 nM | 22000 nM | COc1cc(C2=CCCCc3ccccc32)cc(OC)c1OC [Compound 65, 5-(3′,4′,5′-trimethoxyphenyl)-6,7,8,9-tetrahydro-5H-cyclobenzohepta-5-ene] | –
– | – | – | COc1cc(C2=CCCCc3c2ccc(OC)c3O)cc(OC)c1O [Compound 71, 9-(4′-Hydroxy-3′,5′-dimethoxyphenyl)-3-methoxy-6,7-dihydro-5H-benzo[7]annulen-4-ol] | GI50 [3, 10]: 378 nM; GI50 [4]: 439 nM; GI50 [5]: 579 nM

Compound | GI50 [6] | GI50 [7] | GI50 [8] | other results
COc1cc2c(c(OC)c1O)CCCC=C2c1cc(OC)c(OC)c(OC)c1 [Compound 16, 1,3-Dimethoxy-5-(3′,4′,5′-trimethoxyphenyl)-6,7,8,9-tetrahydro-5H-cyclobenzohepta-6-ene-2-ol] | 7130 nM | 18000 nM | 15700 nM | –
COc1ccc2c(c1F)CCCC=C2c1cc(OC)c(OC)c(OC)c1 [Compound 41, 1-Fluoro-2-methoxy-5-(3′,4′,5′-trimethoxyphenyl)-6,7,8,9-tetrahydro-5H-cyclobenzoheptan-5-ene] | 0.00724 nM | 4 nM | 2.87 nM | –
COc1ccc2c(c1)CCCC=C2c1cc(OC)c(OC)c(OC)c1 [Compound 50, 2-Methoxy-5-(3′,4′,5′-trimethoxyphenyl)-6,7,8,9-tetrahydro-5H-cyclobenzoheptan-5-ene] | 36.6 nM | 51 nM | 26.1 nM | –
COc1cc(C2=CCCCc3c2ccc(OC)c3OC)cc(OC)c1OC [Compound 58, 1,2-Dimethoxy-5-(3′,4′,5′-trimethoxyphenyl)-6,7,8,9-tetrahydro-5H-cyclobenzohepta-6-ene] | 641 nM | 479 nM | 516 nM | –

— patent US20120130129A1, “Efficient Method for Preparing Functionalized Benzosuberenes” (BAYLOR UNIVERSITY, priority 2010, published 2012)
